Earlier results in patent US5304296A, “Glass pH electrodes” (National Power PLC, priority 1990, dated 1994).

SMILES: NC(=O)CN(CC(=O)O)CC(=O)O [ADA, N-(2-acetamido)iminodiacetic acid]
- pKa at 20° C.: 6.62
